Assay results: paper PMC3360681, “Comparison of Recombinant Human Haptocorrin Expressed in Human Embryonic Kidney Cells and Native Haptocorrin” (PLoS ONE, 2012)

B1: native HC: native human haptocorrin purified from plasma of a patient with hepatocellular carcinoma (protein)
chain: EICEVSEENYIRLKPLLNTMIQSNYNRGTSAVNVVLSLKLVGIQIQTLMQKMIQQIKYNVKSRLSDVSSGELALIILALGVCRNAEENLIYDYHLIDKLENKFQAEIENMEAHNGTPLTNYYQLSLDVLALCLFNGNYSTAEVVNHFTPENKNYYFGSQFSVDTGAMAVLALTCVKKSLINGQIKADEGSLKNISIYTKSLVEKILSEKKENGLIGNTFSTGEAMQALFVSSDYYNENDWNCQQTLNTVLTEISQGAFSNPNAAAQVLPALMGKTFLDINKDSSCVSASGNFNISADEPITVTPPDSQSYISVNYSVRINETYFTNVTVLNGSVFLSVMEKAQKMNDTIFGFTMEERSWGPYITCIQGLCANNNDRTYWELLSGGEPLSQGAGSYVVRNGENLEVRWSKY
modifications: 125I label (Iodogen method); glycosylated
notes: native human haptocorrin purified from plasma of a patient with hepatocellular carcinoma
B2: rhHC: recombinant human haptocorrin expressed in HEK293 cells, tag removed, four excessive C-terminal residues (…LVPR) (protein)
chain: EICEVSEENYIRLKPLLNTMIQSNYNRGTSAVNVVLSLKLVGIQIQTLMQKMIQQIKYNVKSRLSDVSSGELALIILALGVCRNAEENLIYDYHLIDKLENKFQAEIENMEAHNGTPLTNYYQLSLDVLALCLFNGNYSTAEVVNHFTPENKNYYFGSQFSVDTGAMAVLALTCVKKSLINGQIKADEGSLKNISIYTKSLVEKILSEKKENGLIGNTFSTGEAMQALFVSSDYYNENDWNCQQTLNTVLTEISQGAFSNPNAAAQVLPALMGKTFLDINKDSSCVSASGNFNISADEPITVTPPDSQSYISVNYSVRINETYFTNVTVLNGSVFLSVMEKAQKMNDTIFGFTMEERSWGPYITCIQGLCANNNDRTYWELLSGGEPLSQGAGSYVVRNGENLEVRWSKYLVPR
modifications: 125I label (Iodogen method); glycosylated, highly sialylated; left off: Myc, C-terminal, cleaved | His6, C-terminal, cleaved

Legend:
[1] = tested on: native HC (native human haptocorrin); design: method as in PMID 17487979; settings: 20°C, cited from earlier work; for k−s dissociation rate constant: pH 7.5, measured over a period of 100 h; for k+s binding rate constant: pH 7.5
TC (transcobalamin) = molecular target: T1, TC (transcobalamin) (Homo sapiens, UniProt P20062); test: Concurrent binding kinetics test with CBC and Cbl; settings: data not shown
T1 sequence (P20062 19-427): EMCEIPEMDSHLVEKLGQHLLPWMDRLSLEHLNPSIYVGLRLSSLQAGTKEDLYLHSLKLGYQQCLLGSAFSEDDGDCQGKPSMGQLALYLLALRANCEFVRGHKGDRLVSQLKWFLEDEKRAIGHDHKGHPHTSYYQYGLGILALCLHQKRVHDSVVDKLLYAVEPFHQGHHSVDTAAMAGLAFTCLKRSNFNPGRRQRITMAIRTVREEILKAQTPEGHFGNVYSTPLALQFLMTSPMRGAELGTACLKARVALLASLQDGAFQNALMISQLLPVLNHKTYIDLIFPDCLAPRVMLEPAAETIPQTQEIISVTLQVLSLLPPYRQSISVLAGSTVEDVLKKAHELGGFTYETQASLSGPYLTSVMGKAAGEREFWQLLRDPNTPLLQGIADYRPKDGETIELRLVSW

[2] = molecular target: T2, rhHC (recombinant human haptocorrin) (Homo sapiens, UniProt P20061); test: Binding and dissociation kinetics with fluorescent Cbl-conjugate CBC (stopped-flow competition and chase experiments); settings: pH 7.5
T2 construct: Myc-His-tag (Myc + 6xHis, from pcDNA4/myc-His A) (C, cleaved yes); made in house
T2 sequence (P20061 24-433): B1 chain
Procedure: A more detailed examination of the binding kinetics was performed in a competitive assay, where the fluorescent ligand CBC [32] alone or in the mixture with a test ligand (Cbl or Cbi) reacted with rhHC over time. Attachment of CBC to Cbl-binding proteins causes increase in the quantum yield of the fluorophore, which facilitates monitoring of the protein - CBC interactions, [33]. Presence of a non-fluorescent ligand X decreases the signal, because the binding goes along two competing routes HC•CBC ← HC → HC·X (reactions behave as irreversible processes within 0.2 s). The binding and dissociation rate constants k +s and k−s, as well as the equilibrium dissociation constant KD were calculated for all ligands by computer fitting as explained elsewhere and the results are listed in Table 2. Compared to previously reported values for native HC, all current binding rate constants (k +s) were 2–3 fold lower. This difference could not be explained by possible concentration error (±10%, examined by simulations).
The dissociation kinetics was examined in chase experiments which obeyed (within the examined time scale) one of the below schemes: HC·CBC → HC → HC·X or HC·X → HC → HC·CBC (first step was rate limiting). The dissociation kinetics of the ligands CBC, Cbl and Cbi was measured after formation of the corresponding complexes with rhHC, followed by addition of external CBC (or Cbl in the case of CBC itself) (Figure 5B). The dissociation rate constants were then calculated from linear slopes (Table 2). […] It should be understood, that evaluation of rate constants below 3 · 10^−6 s^−1 within the examined time scale cannot be precise, and that the records were used for comparison of different ligands rather than for precise quantification of k −s.
[…] The binding kinetics was monitored by means of stopped flow method (DX.17 MV stopped-flow spectro-fluorometer, Applied Biophysics, UK) using the fluorescent response from a Cbl-conjugate CBC [32], [33], excitation 525 nm, emission >550 nm, slit 1.5 mm, voltage 390, bandpass of 18.6 nm, light path of 1 cm. […] The relevant rate constants of association were calculated by computer fitting, as described elsewhere, [33].
The dissociation reactions were monitored on fluorometer Varian Eclipse (Varian, Australia) using the fluorescent response of CBC, excitation 525 nm (slit 5 nm), emission 550 nm (slit 5 nm), photomultiplier 600 V. In one setup the pre-formed rhHC·CBC complex (1 µM, 2 min) was mixed with free Cbl (1 µM), and decrease in fluorescence was registered due to rhHC·CBC ↔ Cbl exchange. Dissociation of the non-fluorescent ligands (Cbl or Cbi) was measured in similar chase experiments. […] The endogenous ligand dissociated from the protein (rate limiting step), whereupon CBC immediately bound to rhHC and increased fluorescence.

IF (intrinsic factor) = IF (intrinsic factor) (Homo sapiens, UniProt P27352); test: Concurrent binding kinetics test with CBC and Cbl; settings: data not shown
[3] = tested on: HepG2 cells expressing the asialoglycoprotein receptor; test: Internalisation of 125I-labelled proteins into HepG2 cells; format: cell-based; settings: 125I-labelled protein
Description: Depending on the source of expression, different isoforms of HC exist in human blood and extracellular fluids. […] We tested whether ^125I-labelled rhHC would be readily taken up by HepG2 cells expressing the asialoglycoprotein receptor involved in HC clearance. […] Only after removal of terminal sialic acid by neuraminidase, rhHC and native HC were internalised. Removal of the terminal sialic acid residues was qualitatively determined by SDS/PAGE (Figure 6A).
The proteins were labelled with ^125I using the Iodogen method (Pierce). Labelled protein was purified on a PD10 column (GE healthcare, Glattbrugg, Switzerland). HEPG2 cells were incubated in twelve-well plates in triplicates with about 1 µg of labelled protein for 1 h at 4°C. The plates were then incubated for 0, 1.5, 3, 6 h at 37°C for internalisation. After these times, the cells were washed twice with PBS/0.1% bovine serum albumin and then incubated for 5 min with ice-cold acid wash buffer (50 mM Glycine-HCl, 100 mM NaCl, pH 2.8) to remove the cell-surface bound radioligand. Subsequently, cells were solubilised by incubation with 1 N NaOH for 5 min. at 37°C. At each time point the radioactivity in the cell medium (released), the acid wash (cell-surface bound) and the solubilised cells (internalised) were determined with a NaI-γ-counter (Cobra II Packard, Canberra Packard GmbH, Frankfurt, Germany).

[4] = Active protein fraction (AP) from absorbance ratio A280/A356 after saturation with aquo-Cbl; format: binding
Description: The spectral features of the complex rhHC•aquo-Cbl were explored further when rhHC was saturated with aquo-Cbl added in steps at concentrations below the total binding capacity of the protein (Figure 3B). This allowed calculation of the molar absorbance coefficients of aquo-Cbl when bound to rhHC (Table 1). These parameters helped to evaluate the active protein fraction (AP) as previously shown for IF [27]. For rhHC the value of AP was found from the ratio of R = A280/A356 according to the equation below and the values of absorbance coefficients from Table 1. [drawing 1]
Prior to AP measurements, rhHC was saturated with an excess of aquo-Cbl, free aquo-Cbl was bound to the specific tetrazole adsorbent, whereupon the spectrum of rhHC·Cbl was recorded and compared to the control sample (buffer + aquo-Cbl + adsorbent). After subtraction of the control spectrum, the absorbance ratio and AP were calculated.
rhHC (10 µM) was saturated with an excess of CNCbl (20 µM) and subjected to dialysis against a 50-fold volume excess of 5 M GdnHCl (30°C, 180 rpm). The solution was changed at days 2 and 3. Incubation was stopped after day 4, whereupon rhHC was renatured by dialysis against 0.2 M Na-phosphate buffer pH 7.5, see also ref. [31].

[5] = rhHC preparation with active protein fraction 0.95
[6] = after removal of terminal sialic acid by neuraminidase
[7] = without neuraminidase treatment, time span of 6 h

IF (intrinsic factor), sequence (P27352 19-417, species assumed): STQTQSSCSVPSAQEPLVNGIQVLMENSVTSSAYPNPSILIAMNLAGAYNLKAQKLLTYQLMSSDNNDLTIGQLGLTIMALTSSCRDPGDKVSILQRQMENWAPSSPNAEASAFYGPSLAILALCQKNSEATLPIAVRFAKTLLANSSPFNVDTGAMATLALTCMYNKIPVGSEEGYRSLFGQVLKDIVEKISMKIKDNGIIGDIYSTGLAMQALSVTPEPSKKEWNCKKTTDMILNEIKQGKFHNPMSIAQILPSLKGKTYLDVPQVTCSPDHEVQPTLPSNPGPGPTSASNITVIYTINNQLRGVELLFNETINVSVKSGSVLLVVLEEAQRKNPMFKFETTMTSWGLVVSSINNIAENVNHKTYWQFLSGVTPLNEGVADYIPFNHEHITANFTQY

Molecule | k−s dissociation rate constant [1] | k+s binding rate constant [1] [M⁻¹ s⁻¹] | k+s binding rate constant (TC (transcobalamin)) | k+s binding rate constant [2, 5] | k−s dissociation rate constant [2, 5] | k+s binding rate constant (IF (intrinsic factor)) | k+s binding rate constant ([2]; rhHC preparation with active protein fraction 0.99) | Internalisation into HepG2 cells [3, 6] | Internalisation into HepG2 cells [3, 7] | AP active protein fraction after renaturing ([4]; apo-rhHC after Cbl saturation, GdnHCl dialysis and renaturing, preparation with AP = 0.95 before treatment) | Cbl binding capacity ([4]; rhHC)
C/C1=C2/[N-][C@H]([C@H](CC(N)=O)[C@@]2(C)CCC(=O)NC[C@@H](C)OP(=O)([O-])O[C@H]2[C@@H](O)[C@@H](n3cnc4cc(C)c(C)cc43)O[C@@H]2CO)[C@]2(C)N=C(/C(C)=C3N=C(/C=C4N=C1[C@@H](CCC(N)=O)C\4(C)C)[C@@H](CCC(N)=O)[C@]\3(C)CC(N)=O)[C@@H](CCC(N)=O)[C@]2(C)CC(N)=O.[Co] [Cbl, cobalamin] | ≈5 · 10^−7 s^−1 | 9e+07 | 60–70 · 10^6 M^−1 s^−1 | X/19/X· 10^6 10^6 M^−1s^−1 | X/≤3/X· 10^−6 10^−6 s^−1 | 60–70 · 10^6 M^−1 s^−1 | – | – | – | – | –
CC1=C2[N-][C@H]([C@H](CC(N)=O)[C@@]2(C)CCC(=O)NC[C@@H](C)O)[C@]2(C)N=C(C(C)=C3N=C(C=C4N=C1[C@@H](CCC(N)=O)C4(C)C)[C@@H](CCC(N)=O)[C@]3(C)CC(N)=O)[C@@H](CCC(N)=O)[C@]2(C)CC(N)=O.[Co+2] [Cbi, cobinamide] | ≈5 · 10^−7 s^−1 | 7.3e+07 | – | 21 10^6 M^−1s^−1 | – | – | 33 10^6 M^−1s^−1 | – | – | – | –
B1 | – | – | – | – | – | – | – | internalised | not internalised | – | –
B2 | – | – | – | – | – | – | – | internalised | not internalised | 0.95 | 95–99%
